Patent US11110195B2, “Esculentin 1a derivatives and uses thereof” (University of Houston System, priority 2013, dated 2021)
In brackets after ≈: the same amount, converted by molar mass. Where two headings read alike, the source gives them in different places. Residues, ends and D or L forms follow the SMILES beside them.

Experiments:
P. aeruginosa ATCC 27853 [1] = test: Bactericidal activity in the presence of basal human tears; assay type: cell-based, Pseudomonas aeruginosa; details: for percentage of bacteria killed: 20 μM peptide, 90 minutes
Method: (§1) FIGS. 2A-2B show the effects of human basal tears on the bactericidal activity of Esc-1a(1-21)NH2 against P. aeruginosa ATCC 27853 (FIG. 2A) and ATCC 19660 (FIG. 2B). Bacterial cells were incubated with the peptide in the presence of different concentrations of tears collected from eighteen consenting adult volunteers with normal ocular surface and pooled. Aliquots were withdrawn for cell counting at different time intervals. Mean data (n=3), expressed as the percentage of bacteria killed by the peptide are shown. *Indicates significant difference, p<0.05.
(§2) 2×10^6 CFU/ml P. aeruginosa (ATCC 27853 or ATCC 19660) were incubated with 1-20 μM Esc-1a(1-21)NH2 in the presence of 50% or 70% v/v tears and aliquots withdrawn, plated and counted after 30, 90 and 120 minutes (n=3).

P. aeruginosa ATCC 19660 = test: as above; assay type: cell-based, Pseudomonas aeruginosa; details: 10 μM peptide, within 30 minutes, 70% (v/v) basal tears
Method: as §1, §2

HaCaT keratinocytes = system: HaCaT keratinocytes
Description: Cell viability is expressed as percentage with respect to the control (cells not treated with the peptide). Data points represent the mean of triplicate samples ±SEM.

Pseudomonas aeruginosa = Pseudomonas aeruginosa ATCC 27853, reference strain; cited from earlier work
P. aeruginosa ATCC 27853 [2] = test: Bactericidal activity in the presence of reflex human tears; assay type: cell-based, Pseudomonas aeruginosa; details: 10 μM or 20 μM peptide, 50% or 70% reflex tears
Method: FIG. 3A: Bacterial cells were incubated with 10 μM or 20 μM peptide in the presence of 50% reflex tears induced by onion vapors and pooled from three consenting adult volunteers with a normal ocular surface. FIG. 3B: Bacteria were incubated with 20 μM peptide in the presence of 70% reflex tears. In both cases, aliquots were withdrawn for cell counting at different time intervals. Mean data, expressed as the percentage of bacteria killed by the peptide are shown.
2×10^6 CFU/ml P. aeruginosa (ATCC 27853) were incubated with 10μM or 20μM Esc-1a(1-21)NH2 in the presence of 50% (FIG. 3A) or 70% (FIG. 3B) human reflex tears and aliquots withdrawn, plated and counted after 30, 90 and 120 minutes (n=3).

P. aeruginosa R1 biofilm = details: 4 μM, 2 hours treatment
Method: (§3) Data points are the mean±SEM of three independent experiments. The levels of statistically significant differences between the two peptides are indicated as follows *P<0.05, **P<0.01, ***P<0.001
(§4) The reference strain and the clinical isolates were grown at 37° C. in Luria-Bertani broth (LB) to mid-log phase (optical density of 0.8 at 590 nm). With the help of tweezers, silicone hydrogel narafilcon A soft CL (1-Day ACUVUE TruEye) were removed from the manufacturer's containers, and washed thrice in phosphate buffered saline (PBS). The lenses were then immersed into wells of a 24-multiwell plate, each well containing 1 mL of bacterial inoculum in 1/10 LB at a concentration of 5×10^4 colony-forming units (CFU)/mL. Noteworthy, the number of bacteria isolated from CL storage cases has been reported to range from 1 to 6×10^4 CFU/case (2, 10). Therefore, in order to reproduce a more realistic level of bacteria to which CLs can be exposed, an inoculum size of 5×10^4 CFU/mL was used for biofilm formation.
(§5) The plate was then incubated in a humidified incubator at 37° C. at 125 rpm to allow biofilm formation on the surface of both lens sides. After 20 hours of incubation, each lens was washed thrice with PBS to remove any non-adherent planktonic cells.
(§6) The lenses were then transferred into wells of a new 24-multiwell plate, each well containing serial dilutions of Esc-1a(1-21)NH2 and Esc-1a(1-21)-1cNH2 in PBS. For […] controls, the lenses were immersed in sterile PBS. The new plate was then incubated at 37° C. for 2 hours with gentle shaking (125 rpm). After peptide treatment, each lens was washed thrice in PBS and transferred into wells of another 24-multiwell plate, each well containing 350 μL of 0.5 mg/mL of 3-(4,5-dimethylthiazol-2-yl)-2,5-diphenyltetrazolium bromide (MTT, from Sigma Aldrich, Milan, Italy) in Hank's solution (136 mM NaCl; 0.34 mM Na2HPO4; 0.44 mMKH2PO4; 5.4 mM KCl; 4.1 mM NaHCO3 pH 7.2, supplemented with 5.5 mM D-glucose) as previously reported (8). The killing of biofilms was determined as a function of the inhibition of MTT reduction to insoluble formazan crystals by bacterial reductases. The plate was incubated again for 2 hours (125 rpm) at 37° C. Formazan crystals were solubilized by the addition of acidified isopropanol. During overnight incubation at room temperature the resulting purple color was absorbed by the lens. Afterward, each lens was soaked in absolute ethanol (500 μL in each well) to decolor it. Aliquots of 100 μL were finally transferred to the wells of a 96-multiwell plate and absorbance was measured at 590 nm using a microplate reader (Infine M 200, Tecan). Untreated bacterial cells in PBS were the control. Percentage of killing was calculated according to the formula: [1−(Abs of treated samples−Abs of blank/Abs of control samples-Abs of blank)][…], where the blank was the solvent PBS.

[3] = system: P. aeruginosa ATCC 27853 biofilm; details: 2 hours treatment
Method: as §3, §4, §5, §6

HaCaT cells = test: Wound healing assay, HaCaT cells; assay type: cell-based, human; details: HaCaT monolayer
Method: The percentage of cell-covered area at each time point is reported on the y-axis. Control (Ctrl) represents cells not treated with the peptide. All data are the mean of at least three independent experiments ±SEM. […] The optimal concentration allowing gap closure was 0.25 μM.
The experimental procedure is similar to that described in Example 6 with the following two differences: (i) 40,000 cells suspended in DMEM supplemented with 4 mM glutamine and 10% FBS were seeded on each side of the ibidi culture inserts instead of 70,000 cells in KGM-2g as for corneal epithelial cells; (ii) serum-free medium was used in the wound healing assay instead of medium supplemented with 5% FBS as for corneal epithelial cells. […] Overall, the experiments indicate that Esc-1a(1-21)NH2 can stimulate wound closure in different types of mammalian cells but this is with a different kinetic or optimal concentration and thus a stereospecific mechanism involving a direct/indirect activation of different signalling transduction cascades (depending on the selected cell type) likely subtends such events.

CC[C@H](C)[C@H](NC(=O)CN)C(=O)N[C@@H](Cc1ccccc1)C(=O)N[C@@H](CO)C(=O)N[C@@H](CCCCN)C(=O)N[C@@H](CC(C)C)C(=O)N[C@@H](C)C(=O)NCC(=O)N[C@@H](CCCCN)C(=O)N[C@@H](CCCCN)C(=O)N[C@H](C(=O)N[C@@H](CCCCN)C(=O)N[C@@H](CC(N)=O)C(=O)N[C@@H](CC(C)C)C(=O)N[C@@H](CC(C)C)C(=O)N[C@H](C(=O)N[C@@H](CO)C(=O)NCC(=O)N[C@@H](CC(C)C)C(=O)N[C@@H](CCCCN)C(=O)NCC(N)=O)[C@@H](C)CC)[C@@H](C)CC [Esc-1a(1-21)NH2] (H-GIFSKLAGKKIKNLLISGLKG-NH2; N-terminus assumed)
percentage of bacteria killed (P. aeruginosa ATCC 27853 [1]; 50% v/v basal tears): 100%
percentage of bacteria killed (P. aeruginosa ATCC 27853 [1]; 70% v/v basal tears): 70%
retention of activity in basal tears (P. aeruginosa ATCC 27853 [1]; 1-20 μM peptide, 50% or 70% v/v basal tears): the majority of Esc-1a(1-21)NH2 activity was retained
killing of bacteria (P. aeruginosa ATCC 19660): complete killing
reduction in the number of metabolically-active keratinocytes (HaCaT keratinocytes; 2 h treatment, 1-64 μM): did not show any remarkable reduction
reduction in the percentage of metabolically-active cells (HaCaT keratinocytes; 24 h, 32 μM and 64 μM): approximately 20%
MIC (Pseudomonas aeruginosa): 4 µM (≈ 8.74 µg/mL)
retention of activity in reflex tears (P. aeruginosa ATCC 27853 [2]): activity was retained
biofilm killing (P. aeruginosa R1 biofilm): 0%
biofilm killing ([3]; 4 μM): activity was lost
biofilm killing ([3]; 32 μM): more than 50%
optimal concentration allowing gap closure (HaCaT cells): 0.25 µM
time to coverage of the wound-field (HaCaT cells; bell-shaped dose-response): 9 to 12 h
